Source: patent publication US20260285888A1, “HETEROCYCLIC COMPOUND AND USE THEREOF” (OTSUKA PHARMACEUTICAL CO., LTD., priority 2023, published 2026)

How the values were obtained:
in vitro = type: cell-based, human; conditions: human, differentiated hl-60 cells, 300 μmol/L, about 24 hours, PMA-differentiated HL-60 cells, LDH; no-treatment 0%, cell lysis buffer 100%; read-out: cytotoxicity (%) Evaluation compound results
Method: An HL-60 cell line (human acute promyelocytic leukemia cells) was successively cultured in RPMI 1640 containing 20% fetal bovine serum (FBS) at 37° C. in 95% atmosphere/5% CO2. Before evaluation, the cells were pre-cultured for about 72 hours in the presence of 10 nM phorbol 12-myristate 13-acetate (PMA) to induce macrophage-like differentiation.
Evaluation compounds were dissolved in DMSO to obtain 30 mmol/L solutions (or suspensions). Each DMSO solution was diluted 100-fold with RPMI 1640 containing 2% FBS (final concentration of the compound: 300 μmol/L) to obtain a treatment solution. The culture supernatant of the differentiated HL-60 cells was removed, and each treatment solution was added and cultured for about 24 hours, followed by cytotoxicity evaluation.
The activity of lactate dehydrogenase (LDH) was measured in the treatment solutions exposed to the cells for about 24 hours by using a commercial kit (Cytotoxicity LDH Assay Kit-WST, Dojindo Laboratories) and a plate reader (Tecan Infinite M1000). The obtained measurement values were used to calculate cytotoxicity (%) as comparison values for each evaluation compound-treated group, with the no-treatment group taken as 0% and the cell lysis buffer-treated group taken as 100%. The test was conducted in triplicate in three wells each, and the average values were used as adopted values.

[1] = Study for confirmation of conversion to brexpiprazole in a buffer (stability of the evaluation compounds); type: physicochemical; conditions: in buffer, average of duplicate; for Concentration of brexpiprazole formed: 60-minute reaction sample; for Concentration of evaluation compound decreased: decrease in 60-minute vs 0-minute reaction sample
Procedure, shortened: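 Compounds (final 1 μmol/L, from 100 μmol/L working solutions) incubated in buffer at 37° C. for 0 or 60 min, in duplicate, after 3 min pre-incubation of the reaction solution. Reactions stopped with acetonitrile/isopropanol (4:1) containing internal standards; compound and formed brexpiprazole quantified against 0.01–1 μmol/L calibration samples.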

Structure (SMILES)	cytotoxicity at 24 h, 300 µM (in vitro)	Concentration of brexpiprazole formed [1]	Concentration of evaluation compound decreased [1]
O=c1ccc2ccc(OCCCC[N+]3(COP(=O)([O-])OCCCOc4ccccc4)CCN(c4cccc5sccc45)CC3)cc2[nH]1 [EX 84, 4-(benzo[b]thiophen-4-yl)-1-(4-((2-oxo-1,2-dihydroquinolin-7-yl)oxy)butyl)piperazin-1-ium-1-yl)methyl (3-phenoxypropyl) phosphate]	1%	0 nM	10 nM
CC(C)(C)C(=O)OP(=O)([O-])OC[N+]1(CCCCOc2ccc3ccc(=O)[nH]c3c2)CCN(c2cccc3sccc23)CC1 [EX 150, (4-(benzothiophen-4-yl)-1-(4-((2-oxo-1H-quinolin-7-yl)oxy)butyl)piperazin-1-ium-1-yl)methyl 2,2-dimethylpropanoyl phosphate]	10%	0 nM	110 nM
O=c1ccc2ccc(OCCCC[N+]3(COP(=O)([O-])OCCOCCO)CCN(c4cccc5sccc45)CC3)cc2[nH]1 [EX 93, (4-(benzo[b]thiophen-4-yl)-1-(4-((2-oxo-1,2-dihydroquinolin-7-yl)oxy)butyl)piperazin-1-ium-1-yl)methyl (2-(2-hydroxyethoxy)ethyl) phosphate]	-6%	0 nM	-10 nM
CCOC(=O)C1CCN(CCOP(=O)([O-])OC[N+]2(CCCCOc3ccc4ccc(=O)[nH]c4c3)CCN(c3cccc4sccc34)CC2)CC1 [EX 147, (4-(benzo[b]thiophen-4-yl)-1-(4-((2-oxo-1,2-dihydroquinolin-7-yl)oxy)butyl)piperazin-1-ium-1-yl)methyl (2-(4-(ethoxycarbonyl)piperidin-1-yl)ethyl) phosphate]	-6%	0 nM	70 nM
O=c1ccc2ccc(OCCCC[N+]3(COP(=O)([O-])OCCN4CCCCC4)CCN(c4cccc5sccc45)CC3)cc2[nH]1 [EX 118, (4-(benzo[b]thiophen-4-yl)-1-(4-((2-oxo-1,2-dihydroquinolin-7-yl)oxy)butyl)piperazin-1-ium-1-yl)methyl (2-(piperidin-1-yl)ethyl) phosphate]	-8%	0 nM	60 nM
C[C@H](NP(=O)([O-])OC[N+]1(CCCCOc2ccc3ccc(=O)[nH]c3c2)CCN(c2cccc3sccc23)CC1)C(=O)OC(C)(C)C [EX 157, (4-(benzo[b]thiophen-4-yl)-1-(4-((2-oxo-1,2-dihydroquinolin-7-yl)oxy)butyl)piperazin-1-ium-1-yl)methyl (S)-(1-(tert-butoxy)-1-oxopropan-2-yl)phosphoramidate]	-4%	0 nM	80 nM
C[C@H](NP(=O)([O-])OC[N+]1(CCCCOc2ccc3ccc(=O)[nH]c3c2)CCN(c2cccc3sccc23)CC1)C(N)=O [EX 158, (4-(benzo[b]thiophen-4-yl)-1-(4-((2-oxo-1,2-dihydroquinolin-7-yl)oxy)butyl)piperazin-1-ium-1-yl)methyl (S)-(1-amino-1-oxopropan-2-yl)phosphoramidate]	-3%	0 nM	70 nM
O=c1ccc2ccc(OCCCC[N+]3(COP(=O)([O-])OCCCCBr)CCN(c4cccc5sccc45)CC3)cc2[nH]1 [EX 62, (4-(benzo[b]thiophen-4-yl)-1-(4-((2-oxo-1,2-dihydroquinolin-7-yl)oxy)butyl)piperazin-1-ium-1-yl)methyl (4-bromobutyl) phosphate]	3%	0 nM	180 nM
O=c1ccc2ccc(OCCCC[N+]3(COP(=O)([O-])OCCCCCCCO)CCN(c4cccc5sccc45)CC3)cc2[nH]1 [EX 45, (4-(benzo[b]thiophen-4-yl)-1-(4-((2-oxo-1,2-dihydroquinolin-7-yl)oxy)butyl)piperazin-1-ium-1-yl)methyl (7-hydroxyheptyl) phosphate]	3%	0 nM	70 nM
CC(C)(CO)COP(=O)([O-])OC[N+]1(CCCCOc2ccc3ccc(=O)[nH]c3c2)CCN(c2cccc3sccc23)CC1 [EX 48, (4-(benzo[b]thiophen-4-yl)-1-(4-((2-oxo-1,2-dihydroquinolin-7-yl)oxy)butyl)piperazin-1-ium-1-yl)methyl (3-hydroxy-2,2-dimethylpropyl) phosphate]	-9%	0 nM	-30 nM
CCCOCCOP(=O)([O-])OC[N+]1(CCCCOc2ccc3ccc(=O)[nH]c3c2)CCN(c2cccc3sccc23)CC1 [EX 95, (4-(benzo[b]thiophen-4-yl)-1-(4-((2-oxo-1.2-dihydroquinolin-7-yl)oxy)butyl)piperazin-1-ium-1-yl)methyl (2-propoxyethyl) phosphate]	-4%	0 nM	-10 nM
O=C(OCCCN1CCOCC1)OCOP(=O)([O-])OC[N+]1(CCCCOc2ccc3ccc(=O)[nH]c3c2)CCN(c2cccc3sccc23)CC1 [EX 146, (4-(Benzo[b]thiophen-4-yl)-1-(4-((2-oxo-1,2-dihydroquinolin-7-yl)oxy)butyl)piperazin-1-ium-1-yl)methyl ((((3-morpholinopropoxy)carbonyl)oxy)methyl) phosphate]	1%	0 nM	110 nM
CSCCCOP(=O)([O-])OC[N+]1(CCCCOc2ccc3ccc(=O)[nH]c3c2)CCN(c2cccc3sccc23)CC1 [EX 66, (4-(benzo[b]thiophen-4-yl)-1-(4-((2-oxo-1,2-dihydroquinolin-7-yl)oxy)butyl)piperazin-1-ium-1-yl)methyl (3-(methylthio)propyl) phosphate]	-2%	0 nM	170 nM
O=c1ccc2ccc(OCCCC[N+]3(COP(=O)([O-])OCCCCCCCBr)CCN(c4cccc5sccc45)CC3)cc2[nH]1 [EX 64, (4-(benzo[b]thiophen-4-yl)-1-(4-((2-oxo-1,2-dihydroquinolin-7-yl)oxy)butyl)piperazin-1-ium-1-yl)methyl (7-bromoheptyl) phosphate]	9%	0 nM	30 nM
CC1(C)OCC(COP(=O)([O-])OC[N+]2(CCCCOc3ccc4ccc(=O)[nH]c4c3)CCN(c3cccc4sccc34)CC2)CO1 [EX 55, (4-(benzo[b]thiophen-4-yl)-1-(4-((2-oxo-1,2-dihydroquinolin-7-yl)oxy)butyl)piperazin-1-ium-1-yl)methyl ((2,2-dimethyl-1,3-dioxan-5-yl)methyl) phosphate]	-7%	0 nM	70 nM
CCOCCOC(=O)OCOP(=O)([O-])OC[N+]1(CCCCOc2ccc3ccc(=O)[nH]c3c2)CCN(c2cccc3sccc23)CC1 [EX 132, (4-(benzo[b]thiophen-4-yl)-1-(4-((2-oxo-1,2-dihydroquinolin-7-yl)oxy)butyl)piperazin-1-ium-1-yl)methyl ((((2-ethoxyethoxy)carbonyl)oxy)methyl) phosphate]	-7%	0 nM	130 nM
COCCCCOP(=O)([O-])OC[N+]1(CCCCOc2ccc3ccc(=O)[nH]c3c2)CCN(c2cccc3sccc23)CC1 [EX 50, (4-(benzo[b]thiophen-4-yl)-1-(4-((2-oxo-1,2-dihydroquinolin-7-yl)oxy)butyl)piperazin-1-ium-1-yl)methyl (4-methoxybutyl) phosphate]	-8%	0 nM	10 nM
Cc1cccc(C(=O)OCCCCCCOP(=O)([O-])OC[N+]2(CCCCOc3ccc4ccc(=O)[nH]c4c3)CCN(c3cccc4sccc34)CC2)n1 [EX 59, (4-(benzo[b]thiophen-4-yl)-1-(4-((2-oxo-1,2-dihydroquinolin-7-yl)oxy)butyl)piperazin-1-ium-1-yl)methyl (6-((6-methylpicolinoyl)oxy)hexyl) phosphate]	1%	0 nM	50 nM
